Patent US20220204497A1, “NOVEL COMPOUND HAVING ANTICANCER ACTIVITY, AND METHOD FOR PRODUCING SAME” (MEDICINAL BIOCONVERGENCE RESEARCH CENTER, priority 2019, published 2022)
Values joined by “and” are separate entries in the source; they are usually repeats but may differ in a detail not shown here. Equal entries are not always repeated.

Tests used:
[1] = system: A549 cells; assay: Cell viability by MTT method in A549 cells; assay type: cell-based; parameters: concentration or dose not given beside the values; conditions: 72 hours treatment
[2] = system: H460 cells; assay: In vivo cancer growth inhibition in H460 xenograft animal model; parameters: species or system BALB/cAnCr female rats; conditions: 50 mg/kg intraperitoneally once every 2 days, 16 days
Experimental: FIG. 4 is a result of testing the cancer cell growth inhibitory effect of compound No. 55 and compound No. 89 among the compounds of the Formula 1 according to the present invention and the tumor distribution of the drug in the H460 xenograft animal model. Taxol was used as a positive control.
H460 cells (2×10^7) were subcutaneously implanted in 7-week-old BALB/cAnCr female […], and then Compound No. 55 or Compound No. 89 (50 mg/kg) and Taxol (10 mg/kg) were administered intraperitoneally once every 2 days. The drug was administered for 16 days, and the size of the tumor and the weight of the animal were measured during administration. After 16 days, the animals were sacrificed and the size and weight of the removed tumors were measured.

[3] = molecular target: T1, AIMP2-DX2 (Homo sapiens, UniProt Q13155); assay: DX2-nanoluciferase assay (DX2 expression change) in transfected A549 cells; conditions: for inhibition at 40 µM / inhibition at 10 µM: A549, 4 h; for inhibition at 40 µM: read-out: DX-Nanoluciferase activity (40 μM), 40 μM, 4 hours treatment, A549 cells transfected with nanoluciferase-DX2; for inhibition at 10 µM: read-out: DX-Nanoluciferase activity (10 μM), 10 μM, 4 hours treatment, A549 cells transfected with nanoluciferase-DX2
T1 sequence (Q13155 1-251 isoform Q13155-2): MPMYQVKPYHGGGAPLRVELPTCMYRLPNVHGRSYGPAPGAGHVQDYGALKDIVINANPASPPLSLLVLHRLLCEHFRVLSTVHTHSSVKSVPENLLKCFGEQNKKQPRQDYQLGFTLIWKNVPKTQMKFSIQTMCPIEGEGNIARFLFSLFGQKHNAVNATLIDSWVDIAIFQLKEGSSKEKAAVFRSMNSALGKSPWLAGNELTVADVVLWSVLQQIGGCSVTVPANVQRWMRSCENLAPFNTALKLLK
Experimental: After cloning DX2 into a plasmid expressing nanoluciferase, the plasmid was transfected into A549 cells. Transfected cells were seeded 1×10^4 per well in a 96-well plate and stabilized for 12 hours. […] Cell viability was measured by the MTT method after 72 hours of treatment with each concentration of the compound in A549 cells.

[4] = system: H460 cells; assay: In vivo anti-cancer efficacy in mice transplanted with H460 cells; parameters: species or system mouse; conditions: 50 mg/kg intraperitoneally once every two days, 15 days
Experimental: FIGS. 3a to 3d are the results of observing the tumor growth while administering compound No. 63 (50 mg/kg) once every two days intraperitoneally for a total of 15 days to a mouse transplanted with H460 cells. (FIG. 3a: macroscopic observation of each mouse and tumor after the end of administration, FIG. 3b: tumor growth curve over time, FIG. 3c: the weight of each tumor obtained at the end of administration, FIG. 3d: change in body weight of animals during administration period).
Next, the anti-cancer efficacy of compound No. 63 was evaluated in a mouse model transplanted with H460 cells.
Specifically, the compound No. 63 was intraperitoneally administered to mice transplanted with H460 cells at 50 mg/kg, once every two days for a total of 15 days.

[5] = inhibitory effect on AIMP2-DX2 expression

SMILES	inhibition at 10 µM [3] [%]	Cell Viability (% inhibition) (A549) [1] [%]	other results
COc1ccc(-c2csc(NC(=O)[C@H](CC(C)C)NS(=O)(=O)c3ccc(C)cc3)n2)cc1 [Compound 55, (S)—N-(4-(4-methoxyphenyl)thiazol-2-yl)-4-methyl-2-(4-methylphenylsulfonamido)pentanamide]		89.25 ± 2.03	body weight of the animal during treatment (side effect) [2]: no change in the body weight; cancer growth inhibitory effect ([2]; H460 xenograft): about 50%; inhibition at 40 µM [3, 5]: 70.3 ± 3.23%
COc1ccc(-c2csc(NC(=O)[C@H](Cc3c[nH]c4ccccc34)NS(=O)(=O)c3ccc(C)cc3)n2)cc1 [Compound 63, (S)-3-(1H-indol-3-yl)-N-(4-(4-methoxyphenyl)thiazol-2-yl)-2-(4-methylphenylsulfonamido)propanamide]		86.53 ± 1.35	body weight of the animals during administration [4]: no change in the body weight; tumor growth ([4]; H460 transplanted mice): significantly inhibited the growth of tumors
O=C(NCCc1ccccc1)[C@H](Cc1c[nH]c2ccccc12)NS(=O)(=O)c1ccc(Br)cc1 [Compound 196, (S)-2-(4-Bromophenylsulfonamido)-3-(1H-indol-3-yl)-N-phenethylpropanamide]	28.2 ± 2.11	79.27 ± 0.55	
O=C(NNC(=O)C12CC3CC(CC(C3)C1)C2)[C@H](Cc1c[nH]c2ccccc12)NS(=O)(=O)c1ccc(Br)cc1 [Compound 197, N—((S)-1-(2-((3S,5S,7S)-adamantane-1-carbonyl)hydrazinyl)-3-(1H-indol-3-yl)-1-oxopropan-2-yl)-4-bromobenzenesulfonamide]		84.86 ± 1.09	DX-Nanoluciferase activity (10 μM) ([3]; 10 μM, 4 hours treatment, A549 cells transfected with nanoluciferase-DX2): 43.54 ± 5.26 (10 μM) and 43.64 ± 5.26 (10 μM)
O=C(NCCc1ccc(F)cc1)[C@H](Cc1c[nH]c2ccccc12)NS(=O)(=O)c1ccc(Br)cc1 [Compound 198, (S)-2-(4-Bromophenylsulfonamido)-N-(4-fluorophenethyl)-3-(1H-indol-3-yl)propanamide]	44.2 ± 8.7	82.05 ± 0.64	
COc1ccc(CCNC(=O)[C@H](Cc2c[nH]c3ccccc23)NS(=O)(=O)c2ccc(Br)cc2)cc1 [Compound 199, (S)-2-(4-Bromophenylsulfonamido)-3-(1H-indol-3-yl)-N-(4-methoxyphenethyl)propanamide]		84.34 ± 0.87	inhibition at 40 µM [3, 5]: 30.6 ± 8.13%
O=C(NCCCc1ccccc1)[C@H](Cc1c[nH]c2ccccc12)NS(=O)(=O)c1ccc(Br)cc1 [Compound 200, (S)-2-(4-Bromophenylsulfonamido)-3-(1H-indol-3-yl)-N-(3-phenylpropyl)propanamide]		79.27 ± 0.9	inhibition at 40 µM [3, 5]: 46.4 ± 4.51%
O=C(NC12CC3CC(CC(C3)C1)C2)[C@H](Cc1c[nH]c2ccccc12)NS(=O)(=O)c1ccc(Br)cc1 [Compound 201, (S)—N((3R,5R,7R)-adamantan-1-yl)-2-(4-bromophenylsulfonamido)-3-(1H-Indol-3-yl)propanamide]		87.1 ± 0.46	DX-Nanoluciferase activity (40 μM) ([3]; 40 μM, 4 hours treatment, A549 cells transfected with nanoluciferase-DX2, inhibitory effect on AIMP2-DX2 expression): 58.25 ± 4.09
COc1ccc(N2CCN(C(=O)[C@H](Cc3c[nH]c4ccccc34)NS(=O)(=O)c3ccc(Br)cc3)CC2)cc1 [Compound 202, (S)—N-(3-(1H-indol-3-yl)-1-(4-(4-methoxyphenyl)piperazin-1-yl)-1-oxopropan-2-yl)-4-bromobenzenesulfonamide]		78.44 ± 2.44	inhibition at 40 µM [3, 5]: 38.6 ± 11.3%
COc1ccc(N2CCN(C(=O)[C@H](Cc3c[nH]c4ccccc34)NS(=O)(=O)c3ccc(C)cc3)CC2)cc1 [Compound 203, (S)—N-(3-(1H-indol-3-yl)-1-(4-(4-methoxyphenyl)piperazin-1-yl)-1-oxopropan-2-yl)-4-methylbenzenesulfonamide]		48.15 ± 3.26	inhibition at 40 µM [3, 5]: 35.1 ± 14.2%

More lines, main results first:

inhibition at 10 µM [3] [%]	SMILES	Cell Viability (% inhibition) (A549) [1] [%]	other results
21.3	COc1ccc(-c2csc(NC(=O)[C@H](Cc3c[nH]c4ccc(O)cc34)NS(=O)(=O)c3ccc(Br)cc3)n2)cc1 [Compound 217, (S)-2-(4-Bromophenylsulfonamido)-3-(5-hydroxy-1H-indol-3-yl)-N-(4-(4-methoxyphenyl)thiazol-2-yl)propanamide]	89.41 ± 0.79	
34.8	COc1ccc(-c2csc(NC(=O)[C@H](Cc3c[nH]c4ccc(C)cc34)NS(=O)(=O)c3ccc(Br)cc3)n2)cc1 [Compound 218, (S)-2-(4-Bromophenylsulfonamido)-N-(4-(4-methoxyphenyl)thiazol-2-yl)-3-(5-methyl-1H-indol-3-yl)propanamide]	90.98 ± 1	
46.9 ± 8.36	COc1ccc(-c2csc(NC(=O)[C@H](Cc3c[nH]c4ccc(F)cc34)NS(=O)(=O)c3ccc(Br)cc3)n2)cc1 [Compound 219, (S)-2-(4-Bromophenylsulfonamido)-3-(5-fluoro-1H-indol-3-yl)-N-(4-(4-methoxyphenyl)thiazol-2-yl)propanamide]	95.58 ± 0.08	
15.9 ± 19.4	Cc1ccc(S(=O)(=O)N[C@@H](Cc2c[nH]c3ccccc23)C(=O)NCCc2ccc(C(=O)O)cc2)cc1 [Compound 220, (S)-4-(2-(3-(1H-indol-3-yl)-2-(4-methylphenylsulfonamido)propanamido)ethyl)benzoic acid]	−11.09 ± 8.4	
40.1 ± 3.09	Cc1ccc(S(=O)(=O)N[C@@H](Cc2c[nH]c3ccccc23)C(=O)NCCc2ccc(Br)cc2)cc1 [Compound 221, (S)—N-(4-bromophenethyl)-3-(1H-indol-3-yl)-2-(4-methylphenylsulfonamido)propanamide]	97.31 ± 0.8	
31.3 ± 14.7	Cc1ccc(S(=O)(=O)N[C@@H](Cc2c[nH]c3ccccc23)C(=O)NCCc2c[nH]c3ccccc23)cc1 [Compound 222, (S)—N-(2-(1H-indol-3-yl)ethyl)-3-(1H-indol-3-yl)-2-(4-methylphenylsulfonamido)propanamide]	91.05 ± 1.38	
34.9 ± 11.8	Cc1ccc(CCNC(=O)[C@H](Cc2c[nH]c3ccccc23)NS(=O)(=O)c2ccc(C)cc2)cc1 [Compound 223, (S)-3-(1H-indol-3-yl)-N-(4-methylphenethyl)-2-(4-methylphenylsulfonamido)propanamide]	93.28 ± 1.51	
42.7 ± 8.97	CCOC(=O)C(Cc1c[nH]c2ccccc12)NC(=O)[C@H](Cc1c[nH]c2ccccc12)NS(=O)(=O)c1ccc(C)cc1 (stereo partly drawn) [Compound 224, Ethyl 2-((S)-3-(1H-indol-3-yl)-2-(4-methylphenylsulfonamido)propanamido)-3-(1H-indol-3-yl)propanoate]	93.83 ± 0.34	
88.7 ± 6.08	Cc1ccc(S(=O)(=O)N[C@@H](Cc2c[nH]c3ccccc23)C(=O)NCCc2ccc(Cl)cc2)cc1 [Compound 225, (S)—N-(4-chlorophenethyl)-3-(1H-indol-3-yl)-2-(4-methylphenylsulfonamido)propanamide]	95.8 ± 0.48	
38.1 ± 14.9	Cc1ccc(S(=O)(=O)N[C@@H](Cc2c[nH]c3ccccc23)C(=O)NC(Cc2c[nH]c3ccccc23)C(=O)O)cc1 (stereo partly drawn) [Compound 226, 2-((S)-3-(1H-indol-3-yl)-2-(4-methylphenylsulfonamido)propanamido)-3-(1H-Indol-3-yl)propanoic acid]	1.11 ± 7.23	
